Data published in PubChem BioAssay AID2060603 (Molecular Pharmacology Branch, DTP, NCI, 2025).
Several values for one entry are separate records, joined by “and”; a condition that tells them apart may be missing. Identical values can stand only once. Blank lines part the entries; values can stand above or below the compound they belong to.

Tested on: 422866-222-R5-J1-PDC spheroid viability
Test: Anticancer human tumor 422866-222-R5-J1-PDC patient-derived pancreatic adenocarcinoma cell line growth inhibition [CLK]
Settings: spheroids with HUVEC and MSC; for viability, T/C: stronger effect = lower value
Source text: A high-throughput screen of multi-cell type tumor spheroids was designed to identify active combinations of […] and targeted small molecules. Complex spheroids include a stromal component modeled by human endothelial cells (HUVEC) and fibroblasts modeled by human mesenchymal stem cells (MSCs). The concentration ranges selected for each drug and investigational agent were based upon clinically achievable concentrations if the clinical Cmax of the agent was known.
Compounds. The drugs and investigational agents: cirtuvivint (SM08502; NSC835563), CC-671 (NSC850746), vemurafenib (NSC761431), tapotoclax (NSC804041), sotorasib (NSC818433), adagrasib (NSC831453), MRTX-1133 (NSC836407), BAY2416964 (NSC825713), copanlisib (NSC816437), inavolisib (NSC800729), abemaciclib (NSC768073), osimertinib (NSC779217), entinostat (NSC756642), eltanexor (KPT-8602, NSC794443), venetoclax (NSC766270), ceralasertib (NSC777638), bortezomib (NSC756655), olaparib (NSC753686), talazoparib (NSC767125), alisertib (NSC759677), peposertib (NSC802822), gemcitabine (NSC613327), 5-fluorouracil (NSC19893), SN-38 (NSC673596), oxaliplatin (NSC266046), paclitaxel (NSC125973), and doxorubicin (NSC123127), were obtained from the National Cancer Institute (NCI) Developmental Therapeutics Program Chemical Repository. The FDA-approved anticancer drug set is available from the Developmental Therapeutics Program at https://dtp.cancer.gov/organization/dscb/obtaining/available plates.htm. […] The stock solutions were prepared in dimethyl sulfoxide (DMSO, Sigma-Aldrich, St. Louis, MO, cat. D2650), except for the platinum complexes which were prepared in saline (Quality Biological, Gaithersburg, MD, cat. 114-055-101), at 800-fold the tested concentration and stored at -70 degrees C prior to their use. All drugs and investigational agents were tested over a range starting from a high concentration at or near the clinical Cmax and decreasing in half-log increments. If the clinical Cmax for an agent had not been determined, the highest concentration tested was 10 microM.
Cell Culture. All cells were maintained in an incubator at 37 degrees C and 5% CO2 with 95% humidity. The PDC lines were cultured according to standard operating procedures established by the NCI PDMR. Briefly, all PDCs were thawed and cultured in Matrigel-coated flasks prepared with a working solution of 1X Ham's F-12 nutrient mix, without supplementation (Invitrogen, Waltham, MA, cat. 11765054), 100 U/mL penicillin-streptomycin (Invitrogen, cat. 15140122), and 2.5% Matrigel (Corning Inc., Corning, NY, cat. 354248) for the first three passages. The 947758-054-R-J2-PDC line was cultured in 6B/Colon 1A media, which includes advanced DMEM/F-12 (Thermo Fisher Scientific, cat. 12634028), 10 mM HEPES (Thermo Fisher Scientific, cat. 15630080), 1X GlutaMAX supplement (Thermo Fisher Scientific, cat. 35050061), 0.1 mg/mL primocin (InvivoGen, cat. ant-pm-2), 10% defined fetal bovine serum, heat inactivated (HyClone Laboratories Inc., cat. SH30070.03HI), 1.25 mM N-Acetyl-L-cysteine (Sigma-Aldrich, cat. A9165), 10 mM nicotinamide (Sigma-Aldrich, cat. N0636), 1X B-27 supplement (Thermo Fisher Scientific, cat. 17504044), 1X N-2 supplement (Thermo Fisher Scientific, cat. 17502048), and 10 microM Y-27632 dihydrochloride (Tocris Bioscience, cat. 1254). The 876862-298-R-J1-PDC was cultured in 6E media, which includes all 6B/Colon 1A media components plus 50% L-WRN conditioned media (ATCC, cat. CRL-3276), 50 ng/mL recombinant human EGF recombinant protein (hEGF; Thermo Fisher Scientific, cat. PHG0311), 10 ng/mL recombinant human fibroblast growth factor 10 (hGFG-10; PeproTech, cat. 100-26), 1 ng/mL recombinant human fibroblast growth factor 2 (hFGF-2; PeproTech, cat. 100-18B), and 1 µM prostaglandin E2 (PGE2; Tocris, cat. 2296). The 227483-062-R1-J1-PDC line was cultured in Panc media, containing all 6E components except hFGF-2, with the addition of 500 nM SB-431542 (Selleckchem, cat. S1067) and 10 nM gastrin (Tocris, cat. 3006). […]
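Also: spheroids exposed to agents for seven days before readout.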

- IC50 (curve of compound): 0.00428 µM and 0.00536 µM
SMILES: CC(C)CC(NC(=O)C(Cc1ccccc1)NC(=O)c1cnccn1)B(O)O (centres undefined)
- viability, T/C (compound 0.000949 µM): 95.5% and 91.7%
- viability, T/C (compound 0.003 µM): 64.7% and 73.9%
- viability, T/C (compound 0.00949 µM): 16.9% and 26.7%
- viability, T/C (compound 0.03 µM): 2.66% and 2.25%
- viability, T/C (compound 0.0949 µM): 0.86% and 0.8%
- viability, T/C (compound 0.3 µM): 2.88% and 1.33%

- IC50 (curve of first compound, second compound 0.0316 µM): > 10 µM
- IC50 (curve of first compound, second compound 0.1 µM): > 10 µM
- IC50 (curve of first compound, second compound 0.316 µM): > 10 µM
- IC50 (curve of first compound, second compound 1 µM): > 10 µM
- IC50 (curve of first compound, second compound 3.16 µM): > 10 µM
- IC50 (curve of first compound, second compound 10 µM): > 10 µM
SMILES: COC1C=CCC(C)C(C)S(=O)(=O)NC(=O)c2ccc3c(c2)N(CC2CCC21)CC1(CCCc2cc(Cl)ccc21)CO3 (centres undefined) + CNC(=O)c1ccc(Nc2nc(OC3CCCC3)c3c(-c4ccc5nc(C)oc5c4)c[nH]c3n2)c(OC)c1
- viability, T/C (second compound 0.0316 µM, first compound 0.0316 µM): 118%
- viability, T/C (second compound 0.0316 µM, first compound 0.1 µM): 112%
- viability, T/C (second compound 0.0316 µM, first compound 0.316 µM): 114%
- viability, T/C (second compound 0.0316 µM, first compound 1 µM): 96.4%
- viability, T/C (second compound 0.0316 µM, first compound 3.16 µM): 120%
- viability, T/C (second compound 0.0316 µM, first compound 10 µM): 84.6%
- viability, T/C (second compound 0.1 µM, first compound 0.0316 µM): 101%
- viability, T/C (second compound 0.1 µM, first compound 0.1 µM): 92.9%
- viability, T/C (second compound 0.1 µM, first compound 0.316 µM): 94.1%
- viability, T/C (second compound 0.1 µM, first compound 1 µM): 89.2%
- viability, T/C (second compound 0.1 µM, first compound 3.16 µM): 97.8%
- viability, T/C (second compound 0.1 µM, first compound 10 µM): 79.6%
- viability, T/C (second compound 0.316 µM, first compound 0.0316 µM): 85.2%
- viability, T/C (second compound 0.316 µM, first compound 0.1 µM): 86.5%
- viability, T/C (second compound 0.316 µM, first compound 0.316 µM): 72.9%
- viability, T/C (second compound 0.316 µM, first compound 1 µM): 82.3%
- viability, T/C (second compound 0.316 µM, first compound 3.16 µM): 91.6%
- viability, T/C (second compound 0.316 µM, first compound 10 µM): 86.6%
- viability, T/C (second compound 1 µM, first compound 0.0316 µM): 69.3%
- viability, T/C (second compound 1 µM, first compound 0.1 µM): 68.7%
- viability, T/C (second compound 1 µM, first compound 0.316 µM): 60%
- viability, T/C (second compound 1 µM, first compound 1 µM): 63.9%
- viability, T/C (second compound 1 µM, first compound 3.16 µM): 87%
- viability, T/C (second compound 1 µM, first compound 10 µM): 82.2%
- viability, T/C (second compound 3.16 µM, first compound 0.0316 µM): 69.9%
- viability, T/C (second compound 3.16 µM, first compound 0.1 µM): 61.5%
- viability, T/C (second compound 3.16 µM, first compound 0.316 µM): 62.4%
- viability, T/C (second compound 3.16 µM, first compound 1 µM): 57.9%
- viability, T/C (second compound 3.16 µM, first compound 3.16 µM): 88%
- viability, T/C (second compound 3.16 µM, first compound 10 µM): 82%
- viability, T/C (second compound 10 µM, first compound 0.0316 µM): 58%
- viability, T/C (second compound 10 µM, first compound 0.1 µM): 59.5%
- viability, T/C (second compound 10 µM, first compound 0.316 µM): 69.5%
- viability, T/C (second compound 10 µM, first compound 1 µM): 72.8%
- viability, T/C (second compound 10 µM, first compound 3.16 µM): 94.8%
- viability, T/C (second compound 10 µM, first compound 10 µM): 91.5%
